Test results from publication PMC11650737, “Developing MYC Degraders Bearing the Von Hippel–Lindau Ligand to Target the “Undruggable” MYC” (ACS Pharmacology & Translational Science, 2024).
“And” between values parts separate entries of the source, which are not always exact repeats. Equal values may be shown once.

Experiments:
A549 cells [1] = assay: Cell viability (MTT) assay, A549; format: cell-based, human; settings: 72 h
Protocol: The antiproliferative activity of the synthesized compounds was tested in cell viability assays optimally set up for various cancer cell lines (results are depicted in Table 2, n = 3, average IC50 (μM) ± SD).
Cells were plated at a density of 5 × 10^3 cells per well on 96-well plates. After 24 h of incubation (37 °C, 5% CO2), the cell medium was removed, and compounds were added at selected concentrations (0.1–100 μM), followed by incubation for 72 h. Control cells were treated with 0.4% DMSO medium to match the conditions in the wells where drugs were added. After 72 h, the medium was removed, and the 3-(4,5-dimethylthiazol-2-yl)-2,5-diphenyltetrazolium bromide (MTT) solution (0.3 mg/mL in PBS) was added to cells for 3 h under no light conditions. The MTT solution was removed, and the formazan crystals were dissolved in 100 μL of DMSO. The optical density was measured at 570 nm with a reference wavelength of 690 nm using an absorbance microplate reader (SpectraMax 190, Molecular Devices, Sunnyvale, CA, USA). The half-maximal inhibitory concentration (IC50) was calculated based on a four-parameter logistic equation, generating a cell viability curve, using GraphPad Prism 6.01 (GraphPad Software, Inc.). […] The resulting absorbance values were used instead of IC50 calculation. […]

SKBR3 cells = assay: Cell uptake / intracellular concentration by LC-MS/MS, SKBR3; format: in vitro ADME, human; settings: SKBR3, 24 h incubation with 10 μM
Protocol: (§1) Therefore, in order to better comprehend the observed activities of our degraders, following incubation of each compound with cells, the intracellular concentrations of the synthesized derivatives were evaluated in different cancer cell lines, as described previously.[28],[29] SKBR3, PC3, or A549 cells were incubated with PROTACs (at a 10 μΜ concentration) for selected time points, respectively. Upon sample treatment, compounds were extracted and analyzed by LC-MS/MS. Table 1 presents the percentage of the molecule that enters the cells after 24 h incubation at the 10 μM concentration. […] The small molecule MYCi361, used as a binding domain component of MYC, was also evaluated in the cell uptake assay (Table 1).
Cells were plated in 24-well plates at a density of 2 × 10^5 cells/well. 24 h after seeding, cells were incubated with each PROTAC (10 μΜ) for certain time points (1 h, 4 h, 8 h, and 24 h). The incubations were terminated at the selected time points by removing the medium and washing the cells twice with 1 mL cold PBS (1×) in each well in order to remove unbound PROTAC. Subsequently, the cells were lysed by adding a cold solution of ACN:H2O (3:2) and scraping off the cell monolayer. This process was done in two steps: first, 200 μL of ACN:H2O was added, the cells were scraped, and the cell lysate was collected. The second step involved the addition of an extra 100 μL of ACN:H2O, scraping, and collection of the remaining lysate. Samples were subsequently vortexed, sonicated, and centrifuged for 10 min at 13 000 rpm. The supernatants were collected, evaporated for 1 h at 55 °C, and stored at −20 °C until the day of analysis. Samples were then reconstituted in 200 μL of initial mobile phase (100% A), and the intracellular accumulation of PROTACs was determined by LC-MS/MS analysis using Warfarin as a stable internal standard and PROTAC standards for the construction of analytical standard curves.
(§2) The percentage of cell uptake was calculated as follows: [drawing 1]

[2] = Stability of PROTACs in cell medium (DMEM), LC-MS/MS; format: physicochemical; settings: 72 h at 37 °C, 5 μM in DMEM (10% FBS)
Protocol: The stability of selected molecules, such as CSI86, was studied in cell medium over a time frame of 72 h at 37 °C.
The stability of most compounds, including CSI86 PROTAC, was evaluated in DMEM. The drug was prepared at a concentration of 5 μM in DMEM (10% FBS, 1% pen/strep) and aliquoted at approximately 200 μL per Eppendorf. The samples were collected at appropriate time points (0, 1 h, 2 h, 4 h, 8 h, 24 h, 48 h, and 72 h) and stored at −80 °C. On the day of the LC-MS/MS analysis, samples were prepared (50 μL drug in DMEM + 50 μL ACN:H2O + 50 μL IS + 100 μL cold ACN), vortexed, sonicated, and centrifuged at 13 000 rpm for 15 min. Then, samples were transferred into glass tubes, diluted in the initial mobile phase (20% Α – 80% Β), centrifuged for 1 min, and added to a 96-well plate for the LC-MS/MS analysis.

A549 cells [3] = assay: Cell uptake / intracellular concentration by LC-MS/MS, A549; format: in vitro ADME, human; settings: A549, 24 h incubation with 10 μM
Protocol: as §1
Cells were plated in 24-well plates at a density of 2 × 10^5 cells/well. 24 h after seeding, cells were incubated with each PROTAC (10 μΜ) for certain time points (1 h, 4 h, 8 h, and 24 h). […] Samples were then reconstituted in 200 μL of initial mobile phase (100% A), and the intracellular accumulation of PROTACs was determined by LC-MS/MS analysis using Warfarin as a stable internal standard and PROTAC standards for the construction of analytical standard curves.
as §2

## Cc1ncsc1-c1ccc(CNC(=O)[C@@H]2C[C@@H](O)CN2C(=O)[C@@H](NC(=O)CCC(=O)NCCCOc2ccc(-c3cc(C(F)(F)F)nn3C)c(O)c2-c2cc(C(F)(F)F)cc(C(F)(F)F)c2)C(C)(C)C)cc1 [CSI86]
A549 cells [1]
  IC50 (antiproliferative effect): inactive
SKBR3 cells
  Uptake by cells: 26% and 26 ± 5%
SKBR3 cells; corresponding to the uptake
  intracellular concentration: 2.6 µM
[2]
  stability in cell medium (DMEM): stable
A549 cells [3]
  Uptake by cells: 10% and 10 ± 2%
